Read-outs that look alike come from different tables or passages of the source.
Tests used:
[1] = system: HuTu 80
[2] = system: Hep G2; test: cells; settings: Homo sapiens, HepG2, 48 h, read-out: Cytotoxic Effects (IC50)
[3] = system: Hep G2
[4] = system: MRSA-1; test: Antimicrobial activity, serial microdilutions, MRSA-1; type: cell-based, S. aureus; settings: Staphylococcus aureus; for MIC: read-out: Minimum Inhibitory Concentration (MIC); for MBC: read-out: Minimum bactericidal and fungicidal concentrations (MBC, MFC)
Description: (§1) The antimicrobial activity of test compounds was determined by serial microdilutions in 96-well plates using Mueller-Hinton broth for bacterial culture and Sabouraud broth for yeast culture. Cultures of Gram-positive bacteria were used in the experiment: Staphylococcus aureus ATCC 6538 P FDA 209P, Bacillus cereus ATCC 10702 NCTC 8035, Enterococcus faecalis ATCC 29212; Gram-negative bacteria: Escherichia coli ATCC 25922, Pseudomonas aeruginosa ATCC 9027; and yeast: Candida albicans ATCC 10231, purchased from the State Collection of Pathogenic Microorganisms and Cell Cultures “SCPM-Obolensk” (Obolensk, Russia). Methicillin-resistant strains of S. aureus (MRSA) were isolated from patients with chronic tonsillitis (MRSA-1) and sinusitis (MRSA-2) in the bacteriological laboratory of the Republican Clinical Hospital (Kazan, Russia). The experiments were carried out in triplicate.

[5] = system: MCF-7; test: cells; settings: Homo sapiens, MCF7, 48 h, read-out: Cytotoxic Effects (IC50)
[6] = system: Enterococcus faecalis ATCC 29212; test: Antimicrobial activity, serial microdilutions, Ef; type: cell-based; design: key to Minimum Inhibitory Concentration (MIC) / Minimum bactericidal and fungicidal concentrations (MBC, MFC): – means non-active; settings: for MIC / MBC: Enterococcus faecalis; for MIC: ATCC29212, read-out: Minimum Inhibitory Concentration (MIC); for MBC: ATCC29212, read-out: Minimum bactericidal and fungicidal concentrations (MBC, MFC)
Description: as §1

[7] = system: Pseudomonas aeruginosa ATCC 9027; test: Antimicrobial activity, serial microdilutions, Pa; type: cell-based; design: key to Minimum Inhibitory Concentration (MIC) / Minimum bactericidal and fungicidal concentrations (MBC, MFC): – means non-active; settings: for MIC / MBC: Pseudomonas aeruginosa; for MIC: ATCC9027, read-out: Minimum Inhibitory Concentration (MIC); for MBC: ATCC9027, read-out: Minimum bactericidal and fungicidal concentrations (MBC, MFC)
Description: as §1

[8] = system: HuTu 80; test: cells; settings: Homo sapiens, HuTu80, 48 h, read-out: Cytotoxic Effects (IC50)
[9] = system: T98G
[10] = system: SK-OV-3; test: cells; settings: Homo sapiens, SK-OV-3, 48 h, read-out: Cytotoxic Effects (IC50)
[11] = system: Staphylococcus aureus ATCC 6538 P FDA 209P; test: Antimicrobial activity, serial microdilutions, Sa; type: cell-based; settings: Staphylococcus aureus; for MIC: read-out: Minimum Inhibitory Concentration (MIC); for MBC: read-out: Minimum bactericidal and fungicidal concentrations (MBC, MFC)
Description: as §1

[12] = system: PC3; test: cells; settings: Homo sapiens, PC-3, 48 h, read-out: Cytotoxic Effects (IC50), PC3, MTT assay, 48 h
[13] = system: PC3
[14] = system: M-HeLa; settings: calculated relative to the cell line Chang liver (b)
[15] = system: M-HeLa; test: cells; settings: Homo sapiens, 48 h, read-out: Cytotoxic Effects (IC50)
[16] = system: Escherichia coli ATCC 25922; test: Antimicrobial activity, serial microdilutions, Ec; type: cell-based; settings: Escherichia coli; for MIC: ATCC25922, read-out: Minimum Inhibitory Concentration (MIC); for MBC: ATCC25922, read-out: Minimum bactericidal and fungicidal concentrations (MBC, MFC)
Description: as §1

[17] = system: A549
[18] = system: PANC-1
[19] = system: MRSA-2; test: Antimicrobial activity, serial microdilutions, MRSA-2; type: cell-based, S. aureus; settings: Staphylococcus aureus; for MIC: read-out: Minimum Inhibitory Concentration (MIC); for MBC: read-out: Minimum bactericidal and fungicidal concentrations (MBC, MFC)
Description: as §1

[20] = system: PANC-1; test: cells; settings: Homo sapiens, PANC-1, 48 h, read-out: Cytotoxic Effects (IC50)
[21] = system: SK-OV-3
[22] = system: Bacillus cereus ATCC 10702 NCTC 8035; test: Antimicrobial activity, serial microdilutions, Bc; type: cell-based; settings: Bacillus cereus; for MIC: Bc, read-out: Minimum Inhibitory Concentration (MIC); for MBC: read-out: Minimum bactericidal and fungicidal concentrations (MBC, MFC)
Description: as §1

[23] = system: MCF-7
[24] = system: A549; test: cells; settings: Homo sapiens, A549, 48 h, read-out: Cytotoxic Effects (IC50)
[25] = system: T98G; test: cells; settings: Homo sapiens, 48 h, read-out: Cytotoxic Effects (IC50)
[26] = system: Candida albicans ATCC 10231; test: Antimicrobial activity, serial microdilutions, Ca; type: cell-based; design: key to Minimum Inhibitory Concentration (MIC) / Minimum bactericidal and fungicidal concentrations (MBC, MFC): – means non-active; settings: for MIC: read-out: Minimum Inhibitory Concentration (MIC)
Description: as §1

[27] = system: DU-145; test: cells; settings: Homo sapiens, DU-145, 48 h, read-out: Cytotoxic Effects (IC50), DU-145, MTT assay, 48 h
[28] = system: DU-145
[29] = calculated relative to the cell line Chang liver (b)
[30] = reference normal cell line not marked at the place (ns cells)
[31] = calculated relative to the cell line WI38 (a)

SMILES: CCCCCCCCC[P+](N(CC)CC)(N(CC)CC)N(CC)CC [4c, Tris(diethylamino)(nonyl)phosphonium iodide]
- selectivity index (SI) [1, 29]: 1.8
- IC50 [2]: 2.4 ± 0.1 µM
- selectivity index (SI) [3, 29]: 2.0
- MIC [4]: 3.9 ± 0.4 µM
- MBC [4]: 125 ± 10 µM
- IC50 [5]: 1.9 ± 0.1 µM
- MIC [6]: 62.5 ± 5.2 µM
- MBC [6]: 500 ± 48 µM
- Minimum Inhibitory Concentration (MIC) [7]: –
- Minimum bactericidal and fungicidal concentrations (MBC, MFC) [7]: –
- IC50 [8]: 2.6 ± 0.2 µM
- selectivity index (SI) [9, 29]: 1.5
- IC50 [10]: 12.1 ± 1.1 µM
- MIC [11]: 3.9 ± 0.3 µM
- MBC [11]: 250 ± 18 µM
- IC50 [12]: 1.8 ± 0.1 µM
- selectivity index (SI) [13, 29]: 2.7
- selectivity index (SI) [14]: 2.8
- IC50 [15]: 1.7 ± 0.1 µM
- MIC [16]: 500 ± 48 µM
- MBC [16]: 500 ± 48 µM
- selectivity index (SI) [17, 30]: ns (ns—no selectivity)
- selectivity index (SI) [18, 29]: 2.8
- MIC [19]: 7.8 ± 0.6 µM
- MBC [19]: 250 ± 20 µM
- IC50 [20]: 1.7 ± 0.1 µM
- selectivity index (SI) [21, 30]: ns (ns—no selectivity)
- MIC [22]: 3.9 ± 0.3 µM
- MBC [22]: > 500 µM
- selectivity index (SI) [23, 29]: 2.5
- IC50 [24]: 21.1 ± 1.5 µM
- IC50 [25]: 3.2 ± 0.2 µM
- Minimum Inhibitory Concentration (MIC) ([26]; Ca): –
- Minimum bactericidal and fungicidal concentrations (MBC, MFC) ([26]; Ca): –

SMILES: CCCCCCCCCCCCCC[P+](N(CC)CC)(N(CC)CC)N(CC)CC [4e, Tris(diethylamino)(tetradecyl)phosphonium bromide]
- selectivity index (SI) [1, 29]: 28
- IC50 [2]: 1.5 ± 0.1 µM
- selectivity index (SI) [3, 29]: 1.1
- IC50 [27]: 0.4 ± 0.03 µM
- selectivity index (SI) [28, 29]: 4.3
- MIC [4]: 0.5 ± 0.04 µM
- MBC [4]: 0.5 ± 0.04 µM
- IC50 [5]: 0.9 ± 0.07 µM
- MIC [6]: 0.5 ± 0.04 µM
- MBC [6]: 1.9 ± 0.1 µM
- MIC [7]: 7.8 ± 0.6 µM
- MBC [7]: 7.8 ± 0.6 µM
- IC50 [8]: 0.06 ± 0.005 µM
- selectivity index (SI) [9, 29]: 1.7
- IC50 [10]: 1.7 ± 0.1 µM
- MIC [11]: 0.25 ± 0.01 µM
- MBC [11]: 0.9 ± 0.07 µM
- IC50 [12]: 1.7 ± 0.1 µM
- selectivity index (SI) [13, 29]: 1.0
- selectivity index (SI) [14]: 4.3
- IC50 [15]: 0.4 ± 0.03 µM
- MIC [16]: 15.6 ± 1.3 µM
- MBC [16]: 62.5 ± 5.2 µM
- selectivity index (SI) [17, 29]: 1.0
- selectivity index (SI) [18, 29]: 4.3
- MIC [19]: 0.25 ± 0.02 µM
- MBC [19]: 0.25 ± 0.02 µM
- IC50 [20]: 0.4 ± 0.03 µM
- selectivity index (SI) [21, 29]: 1.0
- MIC [22]: 0.5 ± 0.04 µM
- MBC [22]: 7.8 ± 0.6 µM
- selectivity index (SI) [23, 29]: 1.9
- IC50 [24]: 1.7 ± 0.1 µM
- IC50 [25]: 1 ± 0.09 µM
- MIC ([26]; Candida albicans, ATCC10231): 1.9 ± 0.1 µM
- MBC ([26]; Candida albicans, ATCC10231, read-out: Minimum bactericidal and fungicidal concentrations (MBC, MFC)): 7.8 ± 0.6 µM

SMILES: CCCCCCCCC[P+](c1ccccc1)(c1ccccc1)N(CC)CC [6c, (Diethylamino)(nonyl)diphenylphosphonium iodide]
- selectivity index (SI) [1, 31]: 42
- IC50 [2]: 6.2 ± 0.5 µM
- selectivity index (SI) [3, 31]: 1.3
- IC50 [27]: 1.3 ± 0.1 µM
- selectivity index (SI) [28, 31]: 6.4
- MIC [4]: 3.9 ± 0.3 µM
- MBC [4]: 62.5 ± 5.4 µM
- IC50 [5]: 4.2 ± 0.3 µM
- Minimum bactericidal and fungicidal concentrations (MBC, MFC) [6]: –
- MIC [6]: 31.3 ± 5.4 µM
- MIC [7]: 250 ± 21 µM
- MBC [7]: 250 ± 21 µM
- IC50 [8]: 0.2 ± 0.01 µM
- selectivity index (SI) [9, 31]: 3.5
- IC50 [10]: 12.7 ± 1.1 µM
- MIC [11]: 3.9 ± 0.3 µM
- MBC [11]: 125 ± 11 µM
- IC50 [12]: 1 ± 0.08 µM
- selectivity index (SI) [13, 31]: 8.3
- IC50 [15]: 0.9 ± 0.07 µM
- MIC [16]: 500 ± 46 µM
- MBC [16]: 500 ± 47 µM
- selectivity index (SI) [17, 30]: ns (ns—no selectivity)
- selectivity index (SI) [18, 31]: 6.4
- MIC [19]: 3.9 ± 0.4 µM
- MBC [19]: 7.8 ± 0.7 µM
- IC50 [20]: 1.3 ± 0.1 µM
- selectivity index (SI) [21, 30]: ns (ns—no selectivity)
- MIC [22]: 1.9 ± 0.1 µM
- MBC [22]: > 500 µM
- selectivity index (SI) [23, 31]: 2.0
- IC50 [24]: 11.4 ± 0.9 µM
- IC50 [25]: 2.4 ± 0.1 µM
- Minimum bactericidal and fungicidal concentrations (MBC, MFC) ([26]; Ca): –
- MIC ([26]; Candida albicans, ATCC10231): 500 ± 47 µM

Source: paper PMC10649961, “Novel Mitochondria-Targeted Amphiphilic Aminophosphonium Salts and Lipids Nanoparticles: Synthesis, Antitumor Activity and Toxicity” (Nanomaterials, 2023)
